Measured values as given in patent publication US10316039B2, “P2X3 and/or P2X2/3 compounds and methods” (Asana Biosciences, LLC, priority 2013, dated 2019).

Assays:
P2X3 = molecular target: T1, P2X3 (UniProt P56373); assay: P2X3 FLIPR intracellular calcium assay; assay type: cell-based; conditions: agonist at EC75, species (human or rat) not given
T1 sequence (P56373 1-397): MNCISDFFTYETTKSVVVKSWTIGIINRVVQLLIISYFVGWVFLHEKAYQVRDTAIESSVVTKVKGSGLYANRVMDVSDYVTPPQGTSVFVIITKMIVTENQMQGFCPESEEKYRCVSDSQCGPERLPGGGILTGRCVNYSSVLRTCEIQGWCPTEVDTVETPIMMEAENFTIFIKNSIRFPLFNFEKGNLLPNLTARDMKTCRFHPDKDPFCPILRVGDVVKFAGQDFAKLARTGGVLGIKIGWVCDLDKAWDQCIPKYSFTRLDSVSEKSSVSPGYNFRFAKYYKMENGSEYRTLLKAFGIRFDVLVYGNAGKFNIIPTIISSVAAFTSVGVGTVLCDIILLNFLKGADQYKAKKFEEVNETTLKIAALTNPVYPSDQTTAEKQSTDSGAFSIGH
Method in brief: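 Human P2X3-HEK, human P2X2/3-TRex293, rat P2X2/3-TRex293 or rat P2X3 TRex-CHO cells loaded with Calcium 4 dye (1.8 mM probenecid, pH 7.4).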

P2X2/3 = molecular target: T2, P2X2/3 (Homo sapiens, UniProt P56373+Q9UBL9); assay: P2X2/3 FLIPR intracellular calcium assay; assay type: cell-based; conditions: agonist at EC75, species (human or rat) not given
T2 sequence (Q9UBL9 1-471): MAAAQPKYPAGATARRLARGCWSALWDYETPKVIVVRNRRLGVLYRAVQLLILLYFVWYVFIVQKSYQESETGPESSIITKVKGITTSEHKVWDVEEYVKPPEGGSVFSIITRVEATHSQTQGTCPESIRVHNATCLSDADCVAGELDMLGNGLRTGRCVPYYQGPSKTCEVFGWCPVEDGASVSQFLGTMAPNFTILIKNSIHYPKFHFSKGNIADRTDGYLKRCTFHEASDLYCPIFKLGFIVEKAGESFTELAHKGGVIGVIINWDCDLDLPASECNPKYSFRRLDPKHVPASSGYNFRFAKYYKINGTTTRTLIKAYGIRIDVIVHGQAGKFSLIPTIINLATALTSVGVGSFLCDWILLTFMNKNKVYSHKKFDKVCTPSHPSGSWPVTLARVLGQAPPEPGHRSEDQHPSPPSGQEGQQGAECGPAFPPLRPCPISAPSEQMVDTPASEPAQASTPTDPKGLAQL
T2 sequence (P56373 1-397): T1 sequence (P56373 1-397)
Method in brief: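 Stable human P2X2/3 TRex293 cells (doxycycline-induced) loaded with Calcium 4 dye; compounds, 11-point half-log series from 2 mM top stock, preincubated 15 min at RT in HBSS/HEPES pH 7.4 with 1.8 mM CaCl2. Agonist added at EC75; fluorescence change versus no-compound wells gave IC50.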

Row | SMILES | IC50 (P2X3) | IC50 (P2X2/3)
1 | Cc1ccc(-c2cnc3c(Nc4ncc(C)s4)cc(C(=O)N[C@@H](C)c4nnc[nH]4)cn23)s1 [Example 94] | 1 to 100 nM | 1000 to 10000 nM
2 | CCc1nnnn1-c1cc(C(=O)N[C@@H](C)c2nnc[nH]2)cn2c(-c3ccc(C)s3)cnc12 [Example 178] | 1 to 100 nM | 100 to 1000 nM
3 | C[C@H](NC(=O)c1cc(-n2nncc2C(F)F)c2ncc(-c3ccc(C(F)(F)F)s3)n2c1)c1nnc[nH]1 [Example 59] | 100 to 1000 nM | 1000 to 10000 nM
4 | Cc1ccc(-c2cnc3c(-c4ccnn4C)cc(C(=O)N[C@@H](C)c4nnc[nH]4)cn23)s1 [Example 100] | 1 to 100 nM | 100 to 1000 nM
5 | Cc1ccc(CNC(=O)c2cc(N3CCN(C(N)=O)CC3)c3ncc(-c4ccc(C)s4)n3c2)cn1 [Example 13, 8-(4-Carbamoylpiperazin-1-yl)-N-((6-methylpyridin-3-yl)methyl)-3-(5-methylthiophen-2-yl)imidazo[1,2-a]pyridine-6-carboxamide] | > 10000 nM | 100 to 1000 nM
6 | Cc1ccc(-c2cnc3c(-n4nnnc4CC(F)(F)F)cc(C(=O)N[C@@H](C)c4nnc[nH]4)cn23)s1 [Example 181] | 1 to 100 nM | 1 to 100 nM
7 | Cc1ccc(-c2cnc3c(-n4nncc4C(F)F)cc(C(=O)N[C@@H](C)c4nnco4)cn23)s1 [Example 14, (S)—N-(1-(1,3,4-Oxadiazol-2-yl)ethyl)-8-(5-(difluoromethyl)-1H-1,2,3-triazol-1-yl)-3-(5-methylthiophen-2-yl)imidazo[1,2-a]pyridine-6-carboxamide] | 1 to 100 nM | 100 to 1000 nM
8 | Cc1ccc(CNC(=O)c2cc(-n3nnnc3C3CC3)c3ncc(-c4ccc(C)s4)n3c2)cn1 [Example 16, 8-(5-Cyclopropyl-1H-tetrazol-1-yl)-N-((6-methylpyridin-3-yl)methyl)-3-(5-methylthiophen-2-yl)imidazo[1,2-a]pyridine-6-carboxamide] | > 10000 nM | 100 to 1000 nM
9 | Cc1ncc(CNC(=O)c2cc(-c3c(C)n[nH]c3C)c3ncc(-c4ccc(C)s4)n3c2)cn1 [Example 111] | > 10000 nM | 1 to 100 nM
10 | Cc1cnc(CNC(=O)c2cc(-n3nncc3C(F)F)c3ncc(-c4ncc(C)s4)n3c2)cn1 [Example 77] | 1 to 100 nM | 100 to 1000 nM
11 | Cc1ncc(CNC(=O)c2cc(-n3nncc3CC(F)(F)F)c3ncc(-c4ncc(C)s4)n3c2)cn1 [Example 82] | 1 to 100 nM | 100 to 1000 nM
12 | Cc1ccc(CNC(=O)c2cc(-n3nncc3C(C)(F)F)c3ncc(-c4ncc(C)s4)n3c2)cn1 [Example 87] | 100 to 1000 nM | 100 to 1000 nM
13 | Cc1ccc(-c2cnc3c(N4CCC(F)CC4)cc(C(=O)N[C@@H](C)c4nnc[nH]4)cn23)s1 [Example 137] | 1 to 100 nM | 100 to 1000 nM
14 | COc1ncc(CNC(=O)c2cc(-n3nncc3C(F)(F)F)c3ncc(-c4ncc(C)s4)n3c2)cn1 [Example 86] | 100 to 1000 nM | 100 to 1000 nM
15 | CC[C@H](NC(=O)c1cc(-n2nncc2C(C)C)c2ncc(-c3ccc(C)s3)n2c1)c1nnc[nH]1 [Example 61] | 1 to 100 nM | 1 to 100 nM
16 | Cc1ccc(-c2cnc3c(-n4nnnc4CC4CC4)cc(C(=O)N[C@@H](C)c4nnc[nH]4)cn23)s1 [Example 166] | 1 to 100 nM | 1 to 100 nM
17 | Cc1cnc(CNC(=O)c2cc(N3CCC(C)CC3)c3ncc(-c4ccc(C)s4)n3c2)cn1 [Example 116] | 1000 to 10000 nM | 100 to 1000 nM
18 | CCn1nccc1-c1cc(C(=O)N[C@@H](C)c2nnc[nH]2)cn2c(-c3ccc(C)s3)cnc12 [Example 103] | 1 to 100 nM | 100 to 1000 nM
19 | CCc1nnc(-c2cc(C(=O)N[C@@H](C)c3nnc[nH]3)cn3c(-c4ccc(C)s4)cnc23)o1 [Example 1, (S)—N-(1-(4H-1,2,4-Triazol-3-yl)ethyl)-8-(5-ethyl-1,3,4-oxadiazol-2-yl)-3-(5-methylthiophen-2-yl)imidazo[1,2-a]pyridine-6-carboxamide] | 100 to 1000 nM | 1000 to 10000 nM
20 | Cc1ccc(CNC(=O)c2cc(-n3nncc3C(F)F)c3ncc(-c4nnc(C)s4)n3c2)cn1 [Example 5, 8-(5-(Difluoromethyl)-1H-1,2,3-triazol-1-yl)-3-(5-methyl-1,3,4-thiadiazol-2-yl)-N-((6-methylpyridin-3-yl)methyl)imidazo[1,2-a]pyridine-6-carboxamide] | 100 to 1000 nM | 100 to 1000 nM
21 | Cc1ncc([C@@H](C)NC(=O)c2cc(-n3nncc3C(F)F)c3ncc(-c4ncc(C)s4)n3c2)cn1 [Example 84] | 1 to 100 nM | 1 to 100 nM
22 | Cc1ccc(CNC(=O)c2cc(-n3nnnc3C)c3ncc(-c4ccc(C)s4)n3c2)cn1 [Example 157] | 1 to 100 nM | 100 to 1000 nM

Row | SMILES | IC50 (P2X3) | IC50 (P2X2/3)
23 | Cc1ccc(-c2cnc3c(-n4nncc4C)cc(C(=O)N[C@@H](C)c4nnc[nH]4)cn23)s1 [Example 29] | 1 to 100 nM | 100 to 1000 nM
24 | Cc1ccc(-c2cnc3c(N4CCC(C(F)(F)F)CC4)cc(C(=O)N[C@@H](C)c4nnc[nH]4)cn23)s1 [Example 134] | 1 to 100 nM | 1000 to 10000 nM
25 | Cc1ncc(CNC(=O)c2cc(-n3nncc3C(F)F)c3ncc(-c4ccc(C)s4)n3c2)cn1 [Example 31] | 1 to 100 nM | 1 to 100 nM
26 | COc1ncc(CNC(=O)c2cc(-n3nncc3C(F)(F)F)c3ncc(-c4ccc(C)s4)n3c2)cn1 [Example 44] | 1 to 100 nM | 1 to 100 nM
27 | CCC(=O)N(C)c1cc(C(=O)N[C@@H](C)c2nnc[nH]2)cn2c(-c3ccc(C)s3)cnc12 [Example 187] | 1 to 100 nM | 100 to 1000 nM
28 | Cc1ccc(-c2cnc3c(-n4c(C)nnc4C)cc(C(=O)N[C@@H](C)c4nnc[nH]4)cn23)s1 [Example 3, (S)—N-(1-(4H-1,2,4-Triazol-3-yl)ethyl)-8-(3,5-dimethyl-4H-1,2,4-triazol-4-yl)-3-(5-methylthiophen-2-yl)imidazo[1,2-a]pyridine-6-carboxamide] | 1000 to 10000 nM | 100 to 1000 nM
29 | Cc1ccc(-c2cnc3c(Nc4nccs4)cc(C(=O)NCc4ccn(C)c(=O)c4)cn23)s1 [Example 93] | 100 to 1000 nM | 1000 to 10000 nM
30 | Cc1ncc(CNC(=O)c2cc(-n3nnnc3C(F)F)c3ncc(-c4ccc(C)o4)n3c2)cn1 [Example 183] | 100 to 1000 nM | 100 to 1000 nM
31 | Cc1ccc(CNC(=O)c2cc(Nc3ccccc3)c3ncc(-c4ccc(C)s4)n3c2)cn1 [Example 91] | 100 to 1000 nM | 1000 to 10000 nM
32 | Cc1nnc([C@@H](C)NC(=O)c2cc(-n3nnnc3C(F)F)c3ncc(-c4ccc(C)s4)n3c2)o1 [Example 180] | 1 to 100 nM | 1 to 100 nM
33 | Cc1ncc(CNC(=O)c2cc(-n3nncc3C(F)F)c3ncc(-c4ccc(C)o4)n3c2)cn1 [Example 65] | 1 to 100 nM | 1 to 100 nM
34 | C[C@H](NC(=O)c1cc(-n2nncc2C(F)F)c2ncc(-c3ccc(C#N)s3)n2c1)c1nnc[nH]1 [Example 51] | 100 to 1000 nM | 1000 to 10000 nM
35 | CCCc1cnnn1-c1cc(C(=O)NCc2cnc(C)nc2)cn2c(-c3ncc(C)s3)cnc12 [Example 64] | 1 to 100 nM | 100 to 1000 nM
36 | Cc1ccc(-c2cnc3c(-n4nncc4C(F)(F)F)cc(C(=O)N[C@@H](C)c4nnc[nH]4)cn23)s1 [Example 26] | 1 to 100 nM | 1 to 100 nM
37 | Cc1ncc(CNC(=O)c2cc(-n3nncc3C(F)(F)F)c3ncc(-c4ncc(C)s4)n3c2)cn1 [Example 68] | 1 to 100 nM | 100 to 1000 nM
38 | Cc1ccc(-c2cnc3c(N4CCC(CF)CC4)cc(C(=O)N[C@@H](C)c4nnc[nH]4)cn23)s1 [Example 133] | 1 to 100 nM | 100 to 1000 nM
39 | C[C@H](NC(=O)c1cc(-n2nnnc2C2CC2)c2ncc(-c3ccc(Cl)s3)n2c1)c1nnc[nH]1 [Example 175] | 100 to 1000 nM | 1000 to 10000 nM
40 | CCC(=O)N(c1cc(C(=O)N[C@@H](C)c2nnc[nH]2)cn2c(-c3ccc(C)s3)cnc12)C1CC1 [Example 188] | 1 to 100 nM | 100 to 1000 nM
41 | Cc1ccc(-c2cnc3c(N4CCC(F)(F)CC4)cc(C(=O)N[C@H](c4nnc[nH]4)C(C)C)cn23)s1 [Example 145] | 1000 to 10000 nM | 100 to 1000 nM
42 | Cc1ccc(-c2cnc3c(Nc4ccccc4)cc(C(=O)NCc4ccn(C)c(=O)c4)cn23)s1 [Example 90] | 1 to 100 nM | 1000 to 10000 nM
43 | Cc1ncc(CNC(=O)c2cc(-n3nnnc3C(F)F)c3ncc(-c4ncc(C)s4)n3c2)cn1 [Example 172] | 1 to 100 nM | 1 to 100 nM
44 | CCCc1cnnn1-c1cc(C(=O)N[C@@H](C)c2nnc[nH]2)cn2c(-c3ccc(C)s3)cnc12 [Example 63] | 1 to 100 nM | 1 to 100 nM
